# From ChEMBL document CHEMBL5131570, “Discovery of Potent Small-Molecule USP8 Inhibitors for the Treatment of Breast Cancer through Regulating ERα Expression” (J Med Chem, 2022)
# The source made the active and inactive calls. The rule behind the calls is not given here.
# Assays:
# [1] = target: T1, Ubiquitin carboxyl-terminal hydrolase 8 (Homo sapiens, UniProt P40818); experiment: Inhibition of N-terminal His6-tagged USP8 (unknown origin) catalytic domain (734 to 1110 residues) expressed in Escherichia coli BL21 (DE3) cells assessed as deubiquitinating activity using ubiquitin-rhodamine -110 as substrate incubated for 30 mins followed by substrate addition measured after 30 mins by ubiquitin-rhodamine-110 based fluorometric assay
# T1 sequence (P40818 whole entry): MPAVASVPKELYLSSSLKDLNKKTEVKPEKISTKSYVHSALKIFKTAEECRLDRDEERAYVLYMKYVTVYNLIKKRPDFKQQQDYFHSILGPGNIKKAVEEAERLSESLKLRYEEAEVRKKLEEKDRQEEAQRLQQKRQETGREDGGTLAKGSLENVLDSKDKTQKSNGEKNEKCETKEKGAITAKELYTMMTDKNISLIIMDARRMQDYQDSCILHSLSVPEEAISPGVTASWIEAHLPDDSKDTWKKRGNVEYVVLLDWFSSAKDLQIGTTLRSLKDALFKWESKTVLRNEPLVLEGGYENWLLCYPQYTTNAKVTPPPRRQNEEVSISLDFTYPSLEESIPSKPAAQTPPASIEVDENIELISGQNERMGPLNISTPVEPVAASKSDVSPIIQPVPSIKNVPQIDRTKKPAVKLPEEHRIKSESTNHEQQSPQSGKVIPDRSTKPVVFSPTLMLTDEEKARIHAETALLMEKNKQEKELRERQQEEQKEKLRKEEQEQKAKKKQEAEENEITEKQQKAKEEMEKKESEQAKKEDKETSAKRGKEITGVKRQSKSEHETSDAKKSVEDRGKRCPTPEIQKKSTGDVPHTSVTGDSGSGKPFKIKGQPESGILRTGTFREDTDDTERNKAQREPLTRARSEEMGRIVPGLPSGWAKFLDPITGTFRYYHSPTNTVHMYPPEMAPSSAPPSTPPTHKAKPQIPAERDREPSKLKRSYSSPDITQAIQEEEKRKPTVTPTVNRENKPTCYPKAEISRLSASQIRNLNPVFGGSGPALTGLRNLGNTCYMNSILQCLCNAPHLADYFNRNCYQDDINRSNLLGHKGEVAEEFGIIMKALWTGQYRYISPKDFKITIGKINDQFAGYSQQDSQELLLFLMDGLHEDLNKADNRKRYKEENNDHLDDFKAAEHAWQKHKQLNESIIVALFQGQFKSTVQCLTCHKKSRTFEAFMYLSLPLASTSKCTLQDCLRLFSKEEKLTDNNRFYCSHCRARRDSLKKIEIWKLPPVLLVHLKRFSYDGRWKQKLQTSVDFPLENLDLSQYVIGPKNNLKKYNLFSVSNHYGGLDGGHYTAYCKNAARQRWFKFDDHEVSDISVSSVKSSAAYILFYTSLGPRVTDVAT
# [2] = target: T2, Ubiquitin carboxyl-terminal hydrolase 8 (Homo sapiens) (UniProt P40818); experiment: Binding affinity to N-terminal His6-tagged USP8 catalytic domain (734 to 1110 residues) (unknown origin) expressed in Escherichia coli BL21 (DE3) cells using K63-linked di-ubiquitin as substrate by di-ubiquitin cleavage assay
# T2 sequence (whole entry): T1 sequence (P40818 whole entry)
# [3] = target: T2, Ubiquitin carboxyl-terminal hydrolase 8 (Homo sapiens); experiment: Inhibition of N-terminal His6-tagged USP8 catalytic domain (734 to 1110 residues) in HEK293T cell lysates up to 100 uM in presence of HA-Ub-VS probe by HA antibody based Western blotting assay; type: subcellular
# [4] = target: T2, Ubiquitin carboxyl-terminal hydrolase 8 (Homo sapiens); experiment: Inhibition of N-terminal His6-tagged USP8 catalytic domain (734 to 1110 residues) in HEK293T intact cells up to 100 uM in presence of HA-Ub-VS probe by HA antibody based Western blotting assay; type: cell-based
# Homo sapiens = organism: Homo sapiens; experiment: Selectivity ratio of IC50 for USP2 (unknown origin) catalytic domain to IC50 for USP8 (unknown origin) catalytic domain
# MCF7 [5] = experiment: Antiproliferative activity against human MCF7 cells assessed as reduction in colony formation at 3 uM incubated for 7 days by crystal violet staining based colony formation assay; type: functional, cell-based; details: time 7.0 day
# MCF7 [6] = experiment: Induction of apoptosis in human MCF7 cells assessed as increase in apoptotic cells at 1 uM incubated for 12 hrs by AnnexinV-FITC/propidium iodide staining based flow cytometry relative to control (reference value: 2.00 %); type: functional
# MCF7 [7] = experiment: Induction of apoptosis in human MCF7 cells assessed as increase in apoptotic cells at 5 uM incubated for 12 hrs by AnnexinV-FITC/propidium iodide staining based flow cytometry relative to control (reference value: 2.00 %); type: functional
# MCF7 [8] = experiment: Induction of apoptosis in human MCF7 cells assessed as reduction in EGFR expression level up to 5 uM incubated for 24 hrs by Western blotting analysis; type: functional, cell-based
# MCF7 [9] = experiment: Induction of apoptosis in human MCF7 cells assessed as reduction in ErbB3 expression level up to 5 uM incubated for 24 hrs by Western blotting analysis; type: functional, cell-based
# MCF7 [10] = experiment: Downregulation of ERalpha mRNA level in human MCF7 cells up to 5 uM measured after 24 hrs by RT-qPCR analysis; type: functional, cell-based
# MCF7 [11] = experiment: Downregulation of progesterone receptor mRNA level in human MCF7 cells up to 5 uM measured after 24 hrs by RT-qPCR analysis; type: functional, cell-based
# MCF7 [12] = experiment: Downregulation of ERalpha expression in human MCF7 cells measured after 24 hrs by Western blotting analysis; type: functional, cell-based; details: dose 0.5-5 µM, DDE = dose-dependent effect
# MCF7 [13] = experiment: Downregulation of progesterone receptor expression in human MCF7 cells measured after 24 hrs by Western blotting analysis; type: functional, cell-based; details: dose 0.5-5 µM, DDE = dose-dependent effect
# MCF7 [14] = experiment: Downregulation of ERalpha expression in human MCF7 cells assessed as protein stability by measuring reduction in half life measured up to 24 hrs in presence of cycloheximide by Western blotting analysis; type: functional, cell-based
# MCF7 [15] = experiment: Antitumor activity against human MCF7 cells xenografted in BALB/c mouse assessed as inhibition of tumor growth at 20 mg/kg, ip administered via gavage every other day for 14 days; type: functional, organism-based; details: time 14.0 day
# [16] = Toxicity in BALB/c mouse xenografted with human MCF7 cells assessed as change in body weight at 5 to 20 mg/kg, […] every other day for 14 days; type: organism-based; details: in vivo, 336 h, dose 5-20 mg/kg, time 14 day
# MCF7 [17] = experiment: Antitumor activity against human MCF7 cells xenografted in BALB/c mouse assessed as reduction of EGFR phosphorylation in tumor tissue at 5 to 20 mg/kg, ip administered via gavage every other day for 14 days by immunohistochemistry analysis; type: functional, organism-based; details: dose 5-20 mg/kg, time 14.0 day
# MCF7 [18] = experiment: Antitumor activity against human MCF7 cells xenografted in BALB/c mouse assessed as reduction of ErbB3 phosphorylation in tumor tissue at 5 to 20 mg/kg, ip administered via gavage every other day for 14 days by immunohistochemistry analysis; type: functional, organism-based; details: dose 5-20 mg/kg, time 14.0 day
# MCF7 [19] = experiment: Antitumor activity against human MCF7 cells xenografted in BALB/c mouse assessed as reduction of ERalpha phosphorylation in tumor tissue at 5 to 20 mg/kg, ip administered via gavage every other day for 14 days by immunohistochemistry analysis; type: functional, organism-based; details: dose 5-20 mg/kg, time 14.0 day
# [20] = Toxicity in BALB/c mouse xenografted with human MCF7 cells assessed as effect on spleen at 5 to 20 mg/kg, […] every other day measured after 14 days by hematoxylin and eosin staining based analysis; type: organism-based; details: in vivo, 336 h, dose 5-20 mg/kg, time 14 day
smiles,measurement,setting,value
Cc1n[nH]c(C)c1Oc1c(O)cc(O)c2c(=O)cc(-c3ccc(N4CCN(c5ccccn5)CC4)cc3)oc12,IC50,[1],1.2 µM
same,Activity,[2],Active
same,inhibition,[3],Active
same,inhibition,[4],Active
same,Ratio IC50,Homo sapiens,49
same,Activity,MCF7 [5],Active
same,Activity,MCF7 [6],3.45%
same,Activity,MCF7 [7],14.46%
same,Activity,MCF7 [8],Active
same,Activity,MCF7 [9],Active
same,Activity,MCF7 [10],Active
same,Activity,MCF7 [11],Active
same,Activity,MCF7 [12],Dde
same,Activity,MCF7 [13],Dde
same,Activity,MCF7 [14],Active
same,Activity,MCF7 [15],Active
same,Activity,[16],Non-Toxic
same,Activity,MCF7 [17],Active
same,Activity,MCF7 [18],Active
same,Activity,MCF7 [19],Active
same,Activity,[20],Non-Toxic
